Results reported in US20230212171A1, “ALLOSTERIC EGFR INHIBITORS AND METHODS OF USE THEREOF” (Dana-Farber Cancer Institute, Inc., priority 2020, published 2023).
Counter-ions that a name gives are not always drawn.

Assays:
[1] = target: EGFR mutant L858R/T790M Ba/F3 cells (Homo sapiens, UniProt P00533, T790M/L858R, cells depend on it); assay: Ba/F3 cell proliferation model (Cell Titer Glo), EGFR L858R/T790M; assay type: cell-based, murine; settings: single agent, 72 hours; read-out: Cell IC50 BaF3 EGFR L858R/T790M
Source text: (§1) The EGFR mutant L858R and L858R/T790M Ba/F3 cells have been previously described (Zhou, W., et al. Nature 462, 2009, 1070-1074). All cell lines were maintained in RPMI 1640 (Cellgro; Mediatech Inc., Herndon, CA) supplemented with 10% FBS, 100 units/mL penicillin, 100 units/mL streptomycin. The EGFR I941R mutation was introduced via site directed mutagenesis using the Quick Change Site-Directed Mutagenesis kit (Stratagene; La Jolla, CA) according to the manufacturer’s instructions. All constructs were confirmed by DNA sequencing. The constructs were shuttled into the retroviral vector JP1540 using the Cre-recombination system (Agilent Technologies, Santa Clara, CA). Ba/F3 cells were then infected with retrovirus per standard protocols, as described previously (Zhou, et al, Nature 2009). Stable clones were obtained by selection in puromycin (2 µg/ml).
(§2) Growth and inhibition of growth was assessed by the Cell Titer Glo assay (Promega, Madison, WI) and was performed according to the manufacturer’s instructions. The Cell Titer Glo assay is a luminescence-based method used to determine the number of viable cells based on quantitation of the ATP present, which is directly proportional to the amount of metabolically active cells present. Ba/F3 cells of different EGFR genotypes were exposed to compounds as a single agent or in combination with 1 µg/mL cetuximab for 72 hours and the number of cells used per experiment was determined empirically as has been previously established (Zhou, et al., Nature 2009). All experimental points were set up in triplicates in 384-well plates and all experiments were repeated at least three times. […] The curves were fitted using a non-linear regression model with a sigmoidal dose response.

[2] = target: EGFR mutant L858R Ba/F3 cells (Homo sapiens, UniProt P00533, L858R, cells depend on it); assay: Ba/F3 cell proliferation model (Cell Titer Glo), EGFR L858R; assay type: cell-based, murine; settings: single agent, 72 hours; read-out: Cell ICso BaF3 EGFR L858R
Source text: as §1, §2

[3] = target: EGFR L858R/T790M (Homo sapiens, UniProt P00533, L858R/T790M); assay: HTRF-based EGFR biochemical assay (L858R/T790M); settings: enzyme 0.02 nM, ATP 100 µM, 30 min preincubation
Procedure: (§3) EGFR biochemical activity measurements were carried out using the homogeneous time-resolved fluorescence (HTRF) assay (Cisbio). Inhibitors and DMSO normalizations were first dispensed to empty black low-volume 384-well plates (Corning) with D300 digital liquid dispenser (HP). All reactions were carried out at room temperature and solutions were added to plates with a Multidrop Combi Reagent Dispenser (ThermoFisher). The reaction mixture (10 µL final volume) contained 1 µM tyrosine kinase peptide-biotin substrate and mutant EGFR in a reaction buffer (50 mM HEPES pH 7.0, 5 mM MgCl2, 1 mM MnCl2, 0.01% BSA, 2 mM TCEP, 0.1 mM NaVO4). Enzyme concentrations were adjusted to accommodate varying kinase activities (L858R 0.1 nM, L858R/T790M 0.02 nM). Enzyme reaction solution (2× concentrations, 5 µL) was added to 384-well plates containing compounds and incubated for 30 mins. Enzyme reactions were initiated with the addition of 5 µL of ATP to a final concentration of 100 µM and reacted for 20 mins. Reactions were quenched with the addition of 10 µL of phospho-tyrosine antibody-Europium(III) cryptate (1-to-180 volume ratio) and Streptavidin-XL665 (46.7 nM) in EDTA-containing detection buffer, then incubated at room temperature for 1 hour, and read with a PHERAstar plate reader (excitation = 337 nm, emission = 620 nm and 665 nm). IC50 values were determined by inhibition curves (11-point curves from 1.0 µM to 0.130 nM or 23-point curves from 1.0 µM to 0.130 pM) in triplicate with non-linear least squares fit in GraphPad Prism 7.0d.

[4] = target: EGFR L858R (Homo sapiens, UniProt P00533, L858R); assay: HTRF-based EGFR biochemical assay (L858R); settings: enzyme 0.1 nM, ATP 100 µM, 30 min preincubation
Procedure: as §3

Chain of EGFR L858R/T790M (P00533 25-1210 T790M/L858R): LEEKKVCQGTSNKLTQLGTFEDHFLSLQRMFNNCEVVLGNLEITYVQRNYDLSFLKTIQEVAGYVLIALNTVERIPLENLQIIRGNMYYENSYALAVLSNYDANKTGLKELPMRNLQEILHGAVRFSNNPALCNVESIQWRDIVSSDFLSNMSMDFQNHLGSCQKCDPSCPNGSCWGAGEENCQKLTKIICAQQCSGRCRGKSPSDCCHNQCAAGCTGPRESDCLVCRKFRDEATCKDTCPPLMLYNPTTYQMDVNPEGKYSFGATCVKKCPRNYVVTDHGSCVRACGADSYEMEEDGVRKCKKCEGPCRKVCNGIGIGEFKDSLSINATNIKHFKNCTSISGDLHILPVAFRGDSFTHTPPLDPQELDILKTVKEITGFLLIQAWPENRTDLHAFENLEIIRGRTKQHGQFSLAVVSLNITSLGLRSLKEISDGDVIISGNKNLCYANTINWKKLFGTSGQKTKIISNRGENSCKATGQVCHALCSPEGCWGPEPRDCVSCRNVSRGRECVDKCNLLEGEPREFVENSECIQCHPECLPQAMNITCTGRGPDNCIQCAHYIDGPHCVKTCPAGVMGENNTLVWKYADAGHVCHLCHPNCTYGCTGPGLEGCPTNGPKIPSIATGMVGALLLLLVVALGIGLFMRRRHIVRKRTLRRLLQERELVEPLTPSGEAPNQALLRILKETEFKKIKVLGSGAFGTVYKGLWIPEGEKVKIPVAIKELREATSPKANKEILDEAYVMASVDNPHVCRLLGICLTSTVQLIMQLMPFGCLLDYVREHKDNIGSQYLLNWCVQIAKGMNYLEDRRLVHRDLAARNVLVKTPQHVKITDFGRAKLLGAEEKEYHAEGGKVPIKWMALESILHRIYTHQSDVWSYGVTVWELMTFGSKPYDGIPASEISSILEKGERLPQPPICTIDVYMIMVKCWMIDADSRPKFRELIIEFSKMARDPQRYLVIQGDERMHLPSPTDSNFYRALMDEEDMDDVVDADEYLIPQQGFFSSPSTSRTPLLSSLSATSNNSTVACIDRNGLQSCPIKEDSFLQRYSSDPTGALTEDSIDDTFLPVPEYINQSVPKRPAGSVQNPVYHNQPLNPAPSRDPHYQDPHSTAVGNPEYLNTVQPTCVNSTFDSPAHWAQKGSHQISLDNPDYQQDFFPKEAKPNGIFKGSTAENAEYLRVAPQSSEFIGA
Chain of EGFR mutant L858R/T790M Ba/F3 cells (P00533 whole entry T790M/L858R): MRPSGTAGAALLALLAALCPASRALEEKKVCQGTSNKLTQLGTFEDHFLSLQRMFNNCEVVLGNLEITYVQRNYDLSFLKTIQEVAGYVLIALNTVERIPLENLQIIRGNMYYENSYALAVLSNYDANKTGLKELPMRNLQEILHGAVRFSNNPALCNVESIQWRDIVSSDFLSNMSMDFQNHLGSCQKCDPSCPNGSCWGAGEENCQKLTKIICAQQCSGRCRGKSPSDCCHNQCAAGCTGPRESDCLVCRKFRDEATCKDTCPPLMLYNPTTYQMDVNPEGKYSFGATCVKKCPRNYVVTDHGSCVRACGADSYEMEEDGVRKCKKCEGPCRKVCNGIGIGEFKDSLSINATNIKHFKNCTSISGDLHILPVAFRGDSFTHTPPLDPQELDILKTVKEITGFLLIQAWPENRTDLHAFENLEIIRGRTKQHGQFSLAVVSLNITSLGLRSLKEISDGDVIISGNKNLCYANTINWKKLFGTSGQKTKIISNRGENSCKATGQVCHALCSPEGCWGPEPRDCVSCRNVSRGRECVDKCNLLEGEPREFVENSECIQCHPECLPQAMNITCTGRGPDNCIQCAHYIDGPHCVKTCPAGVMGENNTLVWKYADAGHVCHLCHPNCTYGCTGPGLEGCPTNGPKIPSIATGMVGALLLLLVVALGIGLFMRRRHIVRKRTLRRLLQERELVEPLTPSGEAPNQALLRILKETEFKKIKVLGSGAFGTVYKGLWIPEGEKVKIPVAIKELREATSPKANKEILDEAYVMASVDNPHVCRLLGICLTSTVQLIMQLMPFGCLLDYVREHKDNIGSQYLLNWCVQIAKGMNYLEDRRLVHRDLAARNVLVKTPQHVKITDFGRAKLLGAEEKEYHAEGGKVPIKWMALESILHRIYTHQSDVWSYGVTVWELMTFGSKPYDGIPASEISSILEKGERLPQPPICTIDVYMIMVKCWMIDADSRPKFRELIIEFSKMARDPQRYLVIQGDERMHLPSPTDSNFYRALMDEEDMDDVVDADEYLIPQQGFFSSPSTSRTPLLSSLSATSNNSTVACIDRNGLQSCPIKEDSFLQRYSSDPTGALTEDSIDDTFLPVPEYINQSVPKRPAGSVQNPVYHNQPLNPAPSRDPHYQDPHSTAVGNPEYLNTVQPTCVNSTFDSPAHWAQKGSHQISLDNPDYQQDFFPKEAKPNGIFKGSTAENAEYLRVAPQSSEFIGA
Chain of EGFR mutant L858R Ba/F3 cells (P00533 whole entry L858R): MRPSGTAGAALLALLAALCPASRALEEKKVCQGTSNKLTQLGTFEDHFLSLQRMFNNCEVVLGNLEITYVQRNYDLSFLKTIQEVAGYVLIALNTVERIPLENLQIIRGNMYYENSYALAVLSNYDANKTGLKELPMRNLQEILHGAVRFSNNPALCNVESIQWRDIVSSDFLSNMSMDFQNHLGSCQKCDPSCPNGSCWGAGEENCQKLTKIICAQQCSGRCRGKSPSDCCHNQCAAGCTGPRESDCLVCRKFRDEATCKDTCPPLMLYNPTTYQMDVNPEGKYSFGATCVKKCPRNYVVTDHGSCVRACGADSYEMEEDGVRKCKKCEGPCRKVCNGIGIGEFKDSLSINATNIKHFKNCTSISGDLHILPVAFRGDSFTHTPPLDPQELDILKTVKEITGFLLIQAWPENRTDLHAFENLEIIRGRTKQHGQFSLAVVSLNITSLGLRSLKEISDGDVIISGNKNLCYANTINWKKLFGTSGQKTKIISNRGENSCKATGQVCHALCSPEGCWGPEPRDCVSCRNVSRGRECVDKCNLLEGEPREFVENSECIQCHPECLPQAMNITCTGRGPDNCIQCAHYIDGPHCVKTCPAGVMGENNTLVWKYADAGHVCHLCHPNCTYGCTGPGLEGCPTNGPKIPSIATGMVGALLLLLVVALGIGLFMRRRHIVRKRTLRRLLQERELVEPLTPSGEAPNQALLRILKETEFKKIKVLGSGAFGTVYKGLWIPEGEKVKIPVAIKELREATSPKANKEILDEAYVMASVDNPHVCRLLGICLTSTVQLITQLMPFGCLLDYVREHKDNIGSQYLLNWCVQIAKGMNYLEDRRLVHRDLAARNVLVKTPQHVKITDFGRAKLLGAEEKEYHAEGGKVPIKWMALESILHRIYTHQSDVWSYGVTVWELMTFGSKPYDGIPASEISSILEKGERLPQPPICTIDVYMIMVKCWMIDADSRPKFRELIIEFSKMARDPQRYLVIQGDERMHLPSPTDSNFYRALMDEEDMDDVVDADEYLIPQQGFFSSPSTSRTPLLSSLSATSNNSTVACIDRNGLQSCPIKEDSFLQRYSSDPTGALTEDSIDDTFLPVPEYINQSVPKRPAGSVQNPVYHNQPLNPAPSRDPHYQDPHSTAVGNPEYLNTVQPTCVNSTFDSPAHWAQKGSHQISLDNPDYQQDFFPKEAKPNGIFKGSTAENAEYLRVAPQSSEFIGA
Chain of EGFR L858R (P00533 25-1210 L858R): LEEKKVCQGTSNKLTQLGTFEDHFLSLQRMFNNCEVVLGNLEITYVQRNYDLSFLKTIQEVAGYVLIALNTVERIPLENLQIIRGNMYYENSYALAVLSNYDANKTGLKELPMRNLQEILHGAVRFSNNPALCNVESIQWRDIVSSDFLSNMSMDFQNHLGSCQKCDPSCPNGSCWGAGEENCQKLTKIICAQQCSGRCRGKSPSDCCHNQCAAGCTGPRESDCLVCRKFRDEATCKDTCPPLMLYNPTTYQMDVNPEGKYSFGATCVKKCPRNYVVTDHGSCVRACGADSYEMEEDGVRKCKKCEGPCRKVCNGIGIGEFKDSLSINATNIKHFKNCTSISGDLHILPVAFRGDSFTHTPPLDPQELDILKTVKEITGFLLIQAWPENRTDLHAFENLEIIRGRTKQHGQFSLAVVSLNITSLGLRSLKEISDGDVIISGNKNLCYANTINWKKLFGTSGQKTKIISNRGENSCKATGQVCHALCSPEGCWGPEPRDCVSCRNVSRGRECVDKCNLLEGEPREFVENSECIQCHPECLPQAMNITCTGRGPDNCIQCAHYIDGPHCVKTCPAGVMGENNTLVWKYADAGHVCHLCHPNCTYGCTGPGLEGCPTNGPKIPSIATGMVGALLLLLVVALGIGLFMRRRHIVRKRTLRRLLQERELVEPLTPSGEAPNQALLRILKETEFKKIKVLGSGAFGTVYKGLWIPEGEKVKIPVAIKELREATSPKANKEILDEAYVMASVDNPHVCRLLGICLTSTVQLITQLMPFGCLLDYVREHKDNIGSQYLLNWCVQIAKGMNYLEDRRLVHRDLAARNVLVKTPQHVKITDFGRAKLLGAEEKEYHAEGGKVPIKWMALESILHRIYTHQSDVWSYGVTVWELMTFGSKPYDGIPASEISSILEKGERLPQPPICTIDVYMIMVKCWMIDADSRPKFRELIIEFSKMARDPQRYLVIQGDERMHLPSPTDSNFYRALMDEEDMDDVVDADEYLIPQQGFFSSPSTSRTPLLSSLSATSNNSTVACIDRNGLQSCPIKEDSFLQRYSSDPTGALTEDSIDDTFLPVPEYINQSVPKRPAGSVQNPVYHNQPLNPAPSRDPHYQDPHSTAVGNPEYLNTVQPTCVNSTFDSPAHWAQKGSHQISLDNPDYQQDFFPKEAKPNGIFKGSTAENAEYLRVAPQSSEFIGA

CN1CCC(c2ccc(-c3cc4c(=O)n(C(c5nc6ccccc6[nH]5)c5cc(F)ccc5O)ccc4s3)cc2)CC1 (stereo not drawn) [Compound 010, 5-[1H-benzimidazol-2-yl-(5-fluoro-2-hydroxy-phenyl)methyl]-2-[4-(1-methyl-4-piperidyl)phenyl]thieno[3,2-c]pyridin-4-one;dihydrochloride]
GI50 [1]: 240 nM | GI50 [2]: 1080 nM | IC50 [3]: 0.8 nM | IC50 [4]: 2 nM

CN1CCC(c2ccc(-c3cc4c(s3)C(=O)N(C(c3nc5ccccc5[nH]3)c3cc(F)ccc3O)CC4)cc2)CC1 (stereo not drawn) [Compound 011, 6-[1H-benzimidazol-2-yl-(5-fluoro-2-hydroxy-phenyl)methyl]-2-[4-(1-methyl-4-piperidyl)phenyl]-4,5-dihydrothieno[2,3-c]pyridin-7-one;dihydrochloride]
GI50 [1]: 280 nM | GI50 [2]: 490 nM | IC50 [3]: 2 nM | IC50 [4]: 6 nM

CN1CCC(c2ccc(-c3cc4c(s3)CCN(C(c3nc5ccccc5[nH]3)c3cc(F)ccc3O)C4=O)cc2)CC1 (stereo not drawn) [Compound 012, 5-[1H-Benzimidazol-2-Yl-(5-Fluoro-2-Hydroxy-Phenyl)Methyl]-2-[4-(1-Methyl-4-Piperidyl)Phenyl]-6,7-Dihydrothieno[3,2-c]Pyridin-4-One;Dihydrochloride]
GI50 [1]: 840 nM | GI50 [2]: 1700 nM | IC50 [3]: 5 nM | IC50 [4]: 10 nM

CN1CCC(c2ccc(-c3cc4c(s3)CN(C(c3nc5ccccc5[nH]3)c3cc(F)ccc3O)C4=O)cc2)CC1 (stereo not drawn) [Compound 013, 5-[1H-Benzimidazol-2-Yl-(5-Fluoro-2-Hydroxy-Phenyl)Methyl]-2-[4-(1-Methyl-4-Piperidyl)Phenyl]-6H-Thieno[2,3-c]Pyrrol-4-One;Dihydrochloride]
GI50 [1]: 750 nM | GI50 [2]: 1010 nM | IC50 [3]: 14 nM | IC50 [4]: 9 nM

CN1CCC(c2ccc(-c3cc4c(s3)C(=O)N(C(c3nc5ccccc5[nH]3)c3cc(F)ccc3O)C4)cc2)CC1 (stereo not drawn) [Compound 014, 5-[1H-benzimidazol-2-yl-(5-fluoro-2-hydroxy-phenyl)methyl]-2-[4-(1-methyl-4-piperidyl)phenyl]-4H-thieno[2,3-c]pyrrol-6-one;dihydrochloride]
GI50 [1]: 1180 nM | GI50 [2]: 1330 nM | IC50 [3]: 21 nM | IC50 [4]: 21 nM

CN1CCC(c2ccc(-c3ccc4c(c3)CC(=O)N(C(c3nc5ccccc5[nH]3)c3cc(F)ccc3O)C4)cc2)CC1 (stereo not drawn) [Compound 018, 2-[1H-benzimidazol-2-yl-(5-fluoro-2-hydroxy-phenyl)methyl]-6-[4-(1-methyl-4-piperidyl)phenyl]-1,4-dihydroisoquinolin-3-one]
GI50 [1]: 480 nM | GI50 [2]: 530 nM | IC50 [3]: 8 nM | IC50 [4]: 6 nM
